# Measurements: ChEMBL document CHEMBL3988442, “University of Dundee, Small-Polar-MMV Screening Library” (2021)
# Several values for one entry are separate records, joined by “and”; a condition that tells them apart may be missing. Equal values may be shown once.
# Biological target: T1, Coenzyme A biosynthesis bifunctional protein CoaBC (Mycobacterium tuberculosis (strain ATCC 25618 / H37Rv), UniProt P9WNZ1)
# T1 sequence (P9WNZ1 whole entry): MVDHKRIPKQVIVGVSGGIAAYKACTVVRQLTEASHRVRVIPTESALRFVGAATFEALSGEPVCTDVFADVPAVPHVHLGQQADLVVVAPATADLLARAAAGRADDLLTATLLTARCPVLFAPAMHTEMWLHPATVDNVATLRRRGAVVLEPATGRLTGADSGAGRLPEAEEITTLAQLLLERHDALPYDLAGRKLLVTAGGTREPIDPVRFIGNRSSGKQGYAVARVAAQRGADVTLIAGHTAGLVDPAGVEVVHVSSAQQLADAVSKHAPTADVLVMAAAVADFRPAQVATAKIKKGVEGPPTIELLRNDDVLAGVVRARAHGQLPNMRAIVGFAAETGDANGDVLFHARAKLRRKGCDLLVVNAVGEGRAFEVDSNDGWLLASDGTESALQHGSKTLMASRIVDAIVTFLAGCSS
# Test: Biomol Green assay for MtCoaBC inhibitor, OD650 read
# Type: functional
row,SMILES,IC50
1,COc1cccc2cc(CNCc3ccc(N4CCCC4)nc3)oc12,> 30.2 µM
2,COc1cccc(N2CCC(CNCc3cccc(C#N)c3)C2)c1 (stereo not drawn),> 30.2 µM
3,Cn1ncnc1NS(=O)(=O)c1ccc(F)cc1Cl,> 30.2 µM
4,Cc1cc(NC(=O)CN2CCN(c3nccs3)C(C)C2)no1 (stereo not drawn),> 30.2 µM
5,CC(C(=O)Nc1ccc(N2CCCCC2)nc1)n1cncn1 (stereo not drawn),> 30.2 µM
6,Cc1cnn(CC2CCCN2Cc2nnc(C)o2)c1 (stereo not drawn),> 30.2 µM
7,Cn1ccnc1-c1cn(Cc2cn3c(n2)SCC3)nn1,> 30.2 µM
8,O=c1n(CC2COCCO2)nc(CC2CCNCC2)n1-c1ccccc1 (stereo not drawn),> 30.2 µM
9,Cc1c(C(=O)N2CCC2)nnn1-c1ccc2ncccc2c1,> 30.2 µM
10,CN(C)c1ccc(C(=O)N2CCC(c3cc4cnccc4[nH]3)CC2)cc1,> 30.2 µM
11,COc1ccccc1C1CC(=O)Nc2c1c(=O)[nH]n2C1CCCC1 (stereo not drawn),> 30.2 µM
12,CN(C)C(=O)CN1CCCC2(CCN(c3ccsc3)C2=O)C1 (stereo not drawn),> 30.2 µM
13,COc1cccc(N2CCN(C(=O)C(C)Oc3ccccc3)CC2=O)c1 (stereo not drawn),> 30.2 µM
14,CCc1ncc(C(=O)N2CC[C@@H]3CC[C@H](C2)N3C)cn1,> 30.2 µM
15,CCN1CCOCC2(CCCN(C(=O)c3cnccn3)C2)C1 (stereo not drawn),> 30.2 µM
16,COc1ccc(CNC(=O)NC(C)(CO)C2CC2)c(C(F)(F)F)c1 (stereo not drawn),> 30.2 µM
17,CC(C)n1nnnc1-c1ccc(NC(=O)C(C)(C)C#N)cc1F,> 30.2 µM
18,c1ccc(Cc2noc(CCNC3CCOC4(CCOCC4)C3)n2)cc1 (stereo not drawn),> 30.2 µM
19,CC(C)(CNC(=O)C1(c2ccccc2)CCOCC1)C(=O)O,> 30.2 µM
20,Cc1cc(C2CCCN2CCC(=O)N2CCc3sccc3C2)no1 (stereo not drawn),> 30.2 µM
21,Cc1nc(C2CCCN(C(=O)c3c(C)nn4cccnc34)C2)no1 (stereo not drawn),> 30.2 µM
22,CCn1cc(CN(C)Cc2cnn(-c3ccc(F)cc3)c2)cn1,> 30.2 µM

row,SMILES,IC50
1,CCn1nc(C)c(-c2cncn2Cc2ccccc2CN(C)C)c1C,> 30.2 µM
2,CC1CCN(c2ccc(C(=O)N3CCCC3c3ccc[nH]3)cn2)CC1 (stereo not drawn),> 30.2 µM
3,CC(=O)N1CC(c2ccnc(Nc3nccs3)n2)C1,> 30.2 µM
4,COCCN1CC(C(=O)N(CCN(C)C)Cc2ccc(C)s2)CC1=O (stereo not drawn),> 30.2 µM
5,Cc1cc(C)c(C(=O)NC(c2nnc3n2CCNCC3)C(C)C)c(C)c1 (stereo not drawn),> 30.2 µM
6,CCN(CCO)C[C@@H]1CN(C(=O)c2ccc(C)s2)C[C@@H]1CO,> 30.2 µM
7,O=C(c1ccnc(C2CCNCC2)c1)N1CCCC(CO)C1 (stereo not drawn),> 30.2 µM
8,Cc1ccc(C(=O)O)c(N2Cc3cnc(C(C)(C)C)nc3C2)n1,> 30.2 µM
9,Cc1ccc(CN2CCN(C3CCCC3)CC2CCO)o1 (stereo not drawn),> 30.2 µM
10,CC(C)NC1CCN(CCc2ccc3c(c2)CCO3)CC1,> 50.1 µM
11,CC(NCC1(N(C)C)CCOCC1)c1ccc(SC(F)F)cc1 (stereo not drawn),> 30.2 µM
12,COc1c(C2SCC(=O)Nc3[nH]ncc32)cc2c(c1OC)OCO2 (stereo not drawn),> 30.2 µM
13,CCCc1noc(C(C)N2CCN(CCn3ccccc3=O)CC2)n1 (stereo not drawn),> 30.2 µM
14,O=C(c1cc2cc(F)ccc2[nH]1)N1CCCCC1Cn1cccn1 (stereo not drawn),> 30.2 µM
15,Clc1cccc(Cl)c1CN(CCCN1CCOCC1)Cc1cccnc1,> 30.2 µM
16,O=C(NC[C@H]1OC[C@@H](NCc2ccc(F)cc2)[C@@H]1O)N1CCOCC1,> 30.2 µM
17,O=C(C1CCOC1)N1Cc2ccccc2OC2(CCOCC2)C1 (stereo not drawn),> 30.2 µM
18,Cc1c(C(=O)N2CCN(c3ccccn3)CC2)n(C)c2ccc(Cl)cc12,> 30.2 µM
19,O=C(NCc1ccco1)[C@H]1C[C@@H]2CCN(c3ncccn3)C[C@H]2O1,> 30.2 µM
20,Cc1ccc(S(=O)(=O)Nc2ccc(N3CCSCC3)c(C(=O)O)c2)s1,> 30.2 µM (2×) and 32.4 µM and 45.1 µM
21,COc1ccc(-c2noc(C3CC(C(C)C)=NO3)n2)cc1 (stereo not drawn),> 30.2 µM
22,Cc1ccc(S(=O)(=O)NC[C@H]2OC[C@@H](NCc3cccs3)[C@@H]2O)cc1,> 30.2 µM

row,SMILES,IC50
1,Cc1nn2cccnc2c1C(=O)N1CCCC(n2ccnc2C)C1 (stereo not drawn),> 30.2 µM
2,CC(C)N1CC2(CCC1=O)CCN(c1ccnc3ccccc13)CC2,> 30.2 µM
3,Cc1nn(C)c(Cl)c1C1CCCN1C(=O)c1ccncc1 (stereo not drawn),> 30.2 µM
4,COCCN(Cc1cnn(C)c1)CC1CCN(C(C)C)CC1,> 30.2 µM
5,O=C(CCNc1ccccc1)NC1CCN(C(=O)C2CCCCC2)CC1,> 30.2 µM
6,CC(C)C(=O)N1CCCC(Cc2cccnc2)C1 (stereo not drawn),> 30.2 µM
7,O=C1CN(Cc2occc2C(=O)NCCc2ccc(F)cc2)CCN1,> 30.2 µM
8,NC(=O)c1cc2c(nc1Oc1cccc(CN3CCCC3)c1F)CCC2,> 30.2 µM
9,Cc1ccc(NC2CCN(C(=O)c3cnn(C(C)(C)C)c3)CC2)nn1,> 50.1 µM
10,COCCC(=O)NCc1ccc(-c2ccccc2C(=O)O)nc1,> 30.2 µM
11,C[C@H]1CN2C[C@H](O)CC2CN1Cc1ccc2nccnc2c1 (stereo partly drawn),> 30.2 µM
12,COc1ccc(Cl)cc1C(=O)NCCNc1cnccn1,> 30.2 µM
13,CN(Cc1ccc(F)cc1)C(=O)NCc1nnc2n1CCC2,> 30.2 µM
14,COc1ccc(C2CN(c3cc(C)ncn3)CCN2C(C)=O)cc1 (stereo not drawn),> 30.2 µM
15,Cc1cccc(CS(=O)(=O)NCc2nn(C)c3c2COCC3)c1,> 30.2 µM
16,CCNC(=O)C1(Cc2cc(-c3ccc(C)cc3)no2)CCCN(C)C1 (stereo not drawn),> 30.2 µM
17,O=c1oc2ccccc2n1CCCN1CCCC1c1ccc(O)cc1 (stereo not drawn),> 30.2 µM
18,COC(=O)c1cccc2nc([C@H]3CCN(Cc4ccccc4)C3)oc12,> 30.2 µM
19,CN1CCc2nnc(C3CCCN3S(=O)(=O)c3ccc(F)cc3)n2CC1 (stereo not drawn),> 30.2 µM
20,COc1ccc(NC2(C(=O)N3CCCn4cncc4C3)CCCC2)cc1,> 30.2 µM
21,CC(CO)(NC(=O)NCc1ccc(Br)s1)C1CC1 (stereo not drawn),> 30.2 µM
22,O=C1O[C@@H]2CN(c3ccc(Cl)cn3)C[C@@H]2N1CCc1ccc(F)cc1,> 30.2 µM

row,SMILES,IC50
1,c1cncc(CN2CCc3ncnc(C4CCOC4)c3CC2)c1 (stereo not drawn),> 30.2 µM
2,CCc1nc(NCCc2c(C)nn(CC)c2C)c2cnn(C)c2n1,> 30.2 µM
3,CN(C)CC(=O)N1CCC2(CC1)CN(c1ccsc1)C(=O)CO2,> 30.2 µM
4,Cc1nc2c(C(=O)N[C@H]3C[C@H]4CN(C)CCN4C3)cccc2[nH]1,> 30.2 µM
5,COCCNC(=O)c1nc2c(s1)CCCN2c1ccc(C)nn1,> 30.2 µM
6,CCSCc1csc(-c2ccc(S(C)(=O)=O)cc2)n1,> 30.2 µM
7,CC[C@@H]1N(Cc2cc(OC)cc(OC)c2)CCC[C@]12CCC(=O)N2C,> 30.2 µM
8,O=C(NCc1ccccc1)C1CN(c2ccccn2)CCO1 (stereo not drawn),> 30.2 µM
9,CN1CCCC1c1ccc(N2CCOCC2)cn1 (stereo not drawn),> 30.2 µM
10,NC(=O)C1CCN(S(=O)(=O)c2cnn(-c3ccccc3)c2)C1 (stereo not drawn),> 30.2 µM
11,Cc1nn(-c2ccccc2)cc1C(=O)N1CCCC1c1cnn(C)c1 (stereo not drawn),> 30.2 µM
12,CCc1nc(NS(=O)(=O)c2cccc(F)c2C)no1,> 30.2 µM
13,O=C(CN1CCN(C(=O)c2ccccc2)CC1)Nc1ncc(Br)cc1Br,> 30.2 µM
14,CSCc1noc(CNC(=O)C2CCN(C(=O)C3CC3)CC2)n1,> 30.2 µM
15,CC(NCc1ccccc1Cl)c1ccc2[nH]c(=O)[nH]c2c1 (stereo not drawn),> 30.2 µM
16,Fc1ccc(-c2nc(CN3CCCCC3Cn3cncn3)co2)cc1 (stereo not drawn),> 30.2 µM
17,NC(=O)CCNC(=O)C1(N2CCCCC2)Cc2ccccc2C1,> 30.2 µM
18,CCCn1cc(CN2CCOCC2c2[nH]ncc2C)cn1 (stereo not drawn),> 30.2 µM
19,CCc1noc(C(C)N2CCN(CCN3CCCC3=O)CC2)n1 (stereo not drawn),> 30.2 µM
20,CCNC(=O)C1(Cc2cc(-c3ccccc3)no2)CCCN(C)C1 (stereo not drawn),> 30.2 µM
21,Cc1nc(C)n(CC2CN(S(C)(=O)=O)Cc3nccn3C2)n1 (stereo not drawn),> 30.2 µM
22,Cc1noc(C)c1CN1CCn2cc(CNc3ccccn3)nc2C1,> 30.2 µM
